Experimental findings from US11090308B2, “Methods of treating liver disorders or lipid disorders with a THR-beta agonist” (Madrigal Pharmaceuticals, Inc., priority 2016, dated 2021) are described below.

What all share (assay type): in vitro ADME
The test system of data set [1] is sandwich-cultured human hepatocytes (SCHH). As to the kind of experiment: Hepatobiliary disposition in sandwich-cultured human hepatocytes (SCHH). Here is the method:
Qualyst Transporter Solutions evaluated the hepatic uptake of MGL-3196 in sandwich cultured human hypetocytes (SCHH). MGL-3196 was evaluated at 30 μM after a 20-minute incubation (based on a pilot uptake study) in the presence of a physiologic concentration of bovine serum albumin (BSA, ˜4%). The experiment was performed in a 24-well format using 1 lot of Transporter Certified™ human hepatocytes (N=1). Each test condition was performed in 3 wells to provide triplicate data. Sample preparation and LC/MS/MS analysis of cell lysate to determine concentrations of MGL-3196 was performed at QTS according to analytical assay methodology and analytical standards supplied by Madrigal Pharmaceuticals. The following parameter for test article were determined: (a) total accumulation (hepatic uptake), (b) cellular accumulation (intracellular concentration), (c) biliary excretion index (hepatic efflux), (d) Kp value (hepatic accumulation), (e) in vitro biliary clearance (predictive of in vivo biliary clearance), and (f) media accumulation (post incubation supernatant).
Parameters determined: • Bile Accumulation=Total Accumulationplus(+)Buffer−Cellular AccumulationMinus(−)Buffer
[formula] • AUC=(Incubation Time)*(Analyte ConcentrationMedia) • In vitro biliary clearance:
[formula] • (Kp ratio reflects the extent of MGL-3196 accumulation in hepatocyte to the total MGL-3196 concentration in the buffer, outside of the hepatocyte).
MGL-3196 and its metabolite, MGL-3196-M1 (M1), were evaluated in sandwich-cultured human hepatocytes (SCHH) to evaluate the effects of temperature and concentration on total accumulation. Incubations were performed in presence of 4% bovine serum albumin (BSA) for 20 minutes at 37° C. and 4° C. across multiple concentrations (3, 10, 30, and 100 μM). Following the hepatic accumulation study, a species comparison of the hepatobiliary disposition of MGL-3196 (30 μM) and its metabolite, M1, was evaluated in SCHH and sandwich-cultured dog hepatocytes (SCDH) in the presence of 4% BSA.

The target of another data set is T1, CYP2B6 (Homo sapiens, UniProt P20813).
T1 sequence (P20813 1-491): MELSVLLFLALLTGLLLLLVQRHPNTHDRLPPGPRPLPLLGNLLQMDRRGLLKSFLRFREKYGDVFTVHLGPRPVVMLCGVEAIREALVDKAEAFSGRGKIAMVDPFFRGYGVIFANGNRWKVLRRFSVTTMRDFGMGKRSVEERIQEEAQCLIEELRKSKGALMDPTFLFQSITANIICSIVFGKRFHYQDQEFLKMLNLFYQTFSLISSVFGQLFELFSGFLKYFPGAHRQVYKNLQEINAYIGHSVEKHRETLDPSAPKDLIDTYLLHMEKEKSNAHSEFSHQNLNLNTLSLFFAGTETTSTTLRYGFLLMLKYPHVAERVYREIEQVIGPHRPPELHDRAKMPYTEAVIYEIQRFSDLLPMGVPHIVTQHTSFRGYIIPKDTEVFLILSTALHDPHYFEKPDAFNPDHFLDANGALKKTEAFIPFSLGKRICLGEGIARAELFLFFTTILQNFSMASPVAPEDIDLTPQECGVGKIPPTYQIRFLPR
As to the kind of experiment: In vitro Cytochrome P-450 enzyme assay, CYP2B6. From the text: (§1) The following studies have been conducted: (a) in vitro drug protein binding, transporter (organic anion transporting polypeptide [OATP], P-glycoprotein [P-gp], breast cancer-related protein [BCRP], and multiple drug resistance protein 1 [MDR1]), and cytochrome P-450 enzyme assays to investigate absorption, distribution, and excretion; (b) in vivo MGL-3196 rat and dog oral PK and bioavailability studies; (c) in vivo ^14C-MGL-3196 rat and dog oral pharmacokinetics, absorption, excretion, and tissue distribution by quantitative whole-body autoradiography (QWBA) studies; and (d) liver disposition of MGL-3196 using an in vitro sandwiched hepatocyte model system (B-CLEAR® technology) in dog (SCDH) and human (SCHH) hepatocytes.

A further data set addresses T2, CYP1A2 (Homo sapiens, UniProt P05177).
T2 sequence (P05177 1-516): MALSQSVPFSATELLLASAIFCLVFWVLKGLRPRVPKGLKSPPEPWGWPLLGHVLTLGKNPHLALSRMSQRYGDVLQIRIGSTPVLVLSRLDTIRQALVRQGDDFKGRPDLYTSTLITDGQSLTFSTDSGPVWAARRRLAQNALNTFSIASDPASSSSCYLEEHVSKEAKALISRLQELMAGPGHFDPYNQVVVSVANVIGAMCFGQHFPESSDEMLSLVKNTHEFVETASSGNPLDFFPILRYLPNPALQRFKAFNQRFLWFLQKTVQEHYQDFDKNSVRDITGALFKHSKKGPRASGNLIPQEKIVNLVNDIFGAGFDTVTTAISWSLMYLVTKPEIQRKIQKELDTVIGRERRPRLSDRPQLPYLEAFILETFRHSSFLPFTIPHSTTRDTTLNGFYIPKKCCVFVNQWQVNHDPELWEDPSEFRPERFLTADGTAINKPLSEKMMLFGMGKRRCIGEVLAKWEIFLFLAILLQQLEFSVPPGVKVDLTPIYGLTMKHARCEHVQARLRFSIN
Nature of the data set: In vitro Cytochrome P-450 enzyme assay, CYP1A2.
Excerpt: as §1

The target in a further data set is T3, OATP1B1 (Homo sapiens, UniProt Q9Y6L6).
T3 sequence (Q9Y6L6 1-691): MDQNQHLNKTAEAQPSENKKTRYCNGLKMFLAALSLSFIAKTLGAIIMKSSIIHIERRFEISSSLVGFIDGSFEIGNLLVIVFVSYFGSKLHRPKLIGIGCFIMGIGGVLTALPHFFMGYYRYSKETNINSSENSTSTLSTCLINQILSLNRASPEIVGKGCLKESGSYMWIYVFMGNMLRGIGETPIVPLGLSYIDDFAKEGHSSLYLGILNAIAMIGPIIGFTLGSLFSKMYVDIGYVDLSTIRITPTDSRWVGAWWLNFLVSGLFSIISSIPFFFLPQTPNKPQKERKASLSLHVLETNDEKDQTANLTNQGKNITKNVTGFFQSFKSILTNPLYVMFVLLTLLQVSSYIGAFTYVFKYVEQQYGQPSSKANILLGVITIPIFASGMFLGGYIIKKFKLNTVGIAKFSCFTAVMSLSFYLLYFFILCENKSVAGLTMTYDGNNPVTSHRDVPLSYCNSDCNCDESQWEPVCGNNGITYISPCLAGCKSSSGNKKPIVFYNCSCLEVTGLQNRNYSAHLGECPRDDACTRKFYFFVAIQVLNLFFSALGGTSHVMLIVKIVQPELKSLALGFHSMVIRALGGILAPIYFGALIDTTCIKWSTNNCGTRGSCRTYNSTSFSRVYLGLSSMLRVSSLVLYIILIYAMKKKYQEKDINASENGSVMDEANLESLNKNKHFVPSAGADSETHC
Nature of the data set: In vitro drug transporter assay, OATP1B1.
Excerpt: as §1

Where [2] appears, read: 20 min exposure to MGL-3196 30 μM, 4% BSA.

By IC50 is commonly meant the concentration that gives 50% inhibition. For the compound `CC(C)c1cc(Oc2c(Cl)cc(-n3nc(C#N)c(=O)[nH]c3=O)cc2Cl)n[nH]c1=O` [MGL-3196, 2-(3,5-dichloro-4-((5-isopropyl-6-oxo-1,6-dihydropyridazin-3-yl)oxy)phenyl)-3,5-dioxo-2,3,4,5-tetrahydro-1,2,4-triazine-6-carbonitrile], in data set [1] (setting [2]), the “BEI (Biliary Excretion Index)” value is listed as 33.7%, the “Bile Acc.” value came out at 293 pmol/mg, the “Cellular Acc.” value is 570 pmol/mg and the “ClBiliary (in vitro biliary clearance)” value turned out to be 1.45 mL/min/kg. In data set [1] (setting [2]), the “ICC (intracellular concentration)” value was 74.2 µM, the Kp is 2.47 Ratio and the “Total Acc.” value is 863 pmol/mg. Moreover, the “Inhibitor of: CYP2B6” value at CYP2B6 is “not an inhibitor”. Also, at CYP1A2, the “Inhibitor of: CYP1A2” value is “not an inhibitor”. Also, the “Substrate for: OATP1B1” value at OATP1B1 was “OATP1B1;”. Besides, at OATP1B1 (@ 10 uM Pravastatin), the “Inhibitor of: OATP1B1, % inhibition” value was determined as 29%. For the same compound, on OATP1B1 (read-out: Inhibitor of: OATP1B1, IC50), the IC50 came out at 3.7 µM.
As for `CC(CO)c1cc(Oc2c(Cl)cc(-n3nc(C#N)c(=O)[nH]c3=O)cc2Cl)n[nH]c1=O` (centres unmarked) [MGL-3623], in data set [1] (setting [2]), the “BEI (Biliary Excretion Index)” value worked out at 30.4%, the “Bile Acc.” value stood at 1.78 pmol/mg, the “Cellular Acc.” value is reported as 4.01 pmol/mg and the “ICC (intracellular concentration)” value came to 0.521 µM. Also, in data set [1] (setting [2]), the “PIS (post incubation supernatant, cell culture media)” value is listed as “BLQ” and the “Total Acc.” value is listed as 5.79 pmol/mg. Besides, the “accumulation as % of parent's total accumulation” value in data set [1] (MGL-3196 30 μM, 20 minutes) is 0.67%. Moreover, the IC50 on CYP2B6 (range given jointly for CYP2B6, CYP2C9, CYP2C19, weak, read-out: Inhibitor of: CYP2B6, IC50) was in the range of 24 to 35 µM. The IC50 at CYP1A2 (read-out: Inhibitor of: CYP1A2, IC50) is more than 50 µM. In addition, at OATP1B1, the “Substrate for: OATP1B1” value is recorded as “OATP1B1”. In addition, the inhibition at 10 µM at OATP1B1 (@10 uM, insignificant, read-out: Inhibitor of: OATP1B1, % inhib) is 23%.
